What all share (assay type): cell-based, Staphylococcus aureus
For assay [1], the system named is EMRSA-16, EMRSA-15 and BB568. Briefly: Checkerboard MIC assay, results stated jointly for the three isolates. The procedure: (§1) Checkerboard MIC assays were performed in 96-well microtiter trays with an inoculum of about 10^4 CFU in 200 μl of Mueller-Hinton broth (Oxoid, Basingstoke, United Kingdom) supplemented with 2% NaCl. MIC values were obtained after incubation at 35° C. for 24 h. S. aureus ATCC29213 was used as the standard susceptible strain. Fractional inhibitory concentration (FIC) indices for triple combinations were calculated as follows: ΣFIC=FICOXA+FICB+FICC=[C^combOXA/MIC^OXA]+[C^combB/MICB]+[C^combC/MICC], where C^combB, and C^combc are the concentrations of catechins tested. […] For combinations of two compounds the term (C^combC/MICC) was omitted. An FIC index of ≦0.5 indicates synergy.

The next assay deals with S. aureus BB568. Briefly: Checkerboard MIC assay, sensitization to oxacillin. As to conditions: for MIC: Staphylococcus aureus. The protocol: as §1
The subject of the next assay is EMRSA-16. Briefly: Checkerboard MIC assay, sensitization to oxacillin. The conditions noted are these: for MIC: Staphylococcus aureus. The protocol: MICs were then recorded and the experiments were repeated in the presence of the non-galloylated catechin epicatechin at varying concentrations between 0 mcg/ml and 50 mcg/ml.
as §1

For another assay, the system named is EMRSA-15. Briefly: Checkerboard MIC assay, sensitization to oxacillin. The procedure: as §1
The subject of assay [2] is mid-logarithmic EMRSA-16 cells. Briefly: Binding of catechins to S. aureus cells (HPLC assay of Kajiya et al). As to conditions: for fraction of the catechin pool bound to / associated with the cells: catechin alone, 20 min incubation at 35° C. The source says:
As S. aureus membranes are uniquely composed of phosphatidylglycerol (63-74%), lysylphosphatidylglycerol (17-22%), and cardiolipin (5-15%), the inventors determined the capacity of non-galloylated catechins to enhance ECG binding to S. aureus using the HPLC assay described by Kajiya et al (Kajiya, K., S. Kumazawa, and T. Nakayama. 2001. Steric effects on the interaction of tea catechins with lipid bilayers. Biosci. Biotechnol. Biochem. 65:2638-2643). EC, EGC, ECG and EGCG were provided by the Tokyo Food Techno Co. Ltd., Tokyo, Japan. S. aureus BB568 is a constitutive PBP2a producer (provided by B. Berger-Bächi, University of Zürich), and EMRSA-15 and EMRSA-16 were clinical isolates from the Royal Free Hospital, London. Binding of ECG to mid-logarithmic EMRSA-16 cells was enhanced by EC at concentrations of 25 mcg/ml. 13% of the EC pool bound after 20 min incubation at 35° C., and 22% of ECG was associated with the cells. In the presence of EC, ECG binding rose to 41%. […] EC appears, therefore, to facilitate ECG binding to staphylococcal cells as well as to PC and PE liposomes.

Where two headings read alike, the source gives them in different places.

Regarding `Oc1cc(O)c2c(c1)O[C@H](c1cc(O)c(O)c(O)c1)[C@H](O)C2` [EGC, epigallocatechin], the “FIC index, triple combination with oxacillin and ECG” value in assay [1] (FIC index ≦0.5 indicates synergy) is recorded as “strong synergy”. In assay [1] (in combination with ECG and oxacillin), the “effect on the capacity of ECG to reduce oxacillin resistance” value is “markedly enhanced”. Besides, the “enhancement of EGCG-mediated sensitization to oxacillin” value in assay [1] (in combination with EGCG and oxacillin, less than with ECG) is “could enhance sensitization”. Moreover, in assay [1] (without ECG), the “effect of the non-galloylated catechin alone on the MIC of oxacillin” value is listed as “unable to reduce the MIC of oxacillin”.

For the compound `O=C(O[C@@H]1Cc2c(O)cc(O)cc2O[C@@H]1c1cc(O)c(O)c(O)c1)c1cc(O)c(O)c(O)c1` [EGCG, epigallocatechin gallate], the “effect of EGCG on the capacity of ECG to reduce the oxacillin MIC” value in the assay on S. aureus BB568 (ECG 12.5 mg/ml) and in the assay with EMRSA-16 (ECG 12.5 mg/ml) was “compromised the capacity of ECG to reduce the MICs” each time. For the same compound, the “effect on oxacillin MIC when added to ECG” value with EMRSA-16 (ECG 0-12.5 mcg/ml, added catechin 0-50 mcg/ml) was “substantially no significant and synergistic effect”. In assay [1] (ECG 3.12 mg/ml + EGCG 25 mg/ml, strain not stated), the “reduction of the oxacillin MIC by EGCG in the presence of ECG” value is on record as “twofold”. Moreover, the “sensitization to oxacillin by EGCG” value in assay [1] (EGCG without ECG, effect much less pronounced than with ECG) is listed as “able to sensitize”.

For the compound `Cc1onc(-c2ccccc2)c1C(=O)N[C@@H]1C(=O)N2[C@@H]1SC(C)(C)[C@@H]2C(=O)O` [oxacillin], the “oxacillin MIC in the presence of ECG” value with EMRSA-15 (ECG 3.12 mg/ml) was “a similar effect was achieved”; in the assay with S. aureus BB568 (ECG 12.5 mg/ml) it was “below the oxacillin breakpoint”; in the assay with EMRSA-16 (ECG 12.5 mg/ml), “below the oxacillin breakpoint”. Also, the MIC in the assay on EMRSA-15 (Staphylococcus aureus, 24 h, read-out: MIC of oxacillin) was determined as 16 µg/mL; with S. aureus BB568 (BB568, read-out: oxacillin MIC in the presence of ECG and EC) it was 8 µg/mL; in the assay with S. aureus BB568 (BB568, read-out: oxacillin MIC in the presence of ECG and EC, ECG 3.12 mg/ml + EC 25 mg/ml), 2 µg/mL; with EMRSA-16 (read-out: oxacillin MIC in the presence of ECG and EC, ECG 3.12 mg/ml + EC 25 mg/ml) it was 2 µg/mL; in the assay on EMRSA-16 (read-out: oxacillin MIC in the presence of ECG and EC, ECG 3.12 mcg/ml + EC 6.25 mcg/ml) it was 8 µg/mL.

`O=C(O[C@@H]1Cc2c(O)cc(O)cc2O[C@@H]1c1ccc(O)c(O)c1)c1cc(O)c(O)c(O)c1` [ECG, epicatechin gallate]: the “ECG binding in the presence of EC” value in assay [2] (EC 25 mcg/ml, 20 min at 35° C.) is on record as 41%. Besides, the “fraction of the catechin pool bound to / associated with the cells” value in assay [2] amounted to 22%. The “growth of EMRSA-16 in the absence of oxacillin” value with EMRSA-16 (ECG ≧12.5 mg/ml with both EC and EGC ≧50 mg/ml, no oxacillin) was “inhibited the growth”.

For `Oc1cc(O)c2c(c1)O[C@H](c1ccc(O)c(O)c1)[C@H](O)C2` [EC, epicatechin], the “EC binding in the presence of ECG” value in assay [2] (20 min at 35° C.) stood at 35.5%. Further, in assay [2], the “fraction of the catechin pool bound to / associated with the cells” value is listed as 13%.

These data come from patent publication US8338476B2, “Compositions and methods of sensitizing methicillin resistant Staphylococcus aureus to beta-lactam antibiotics” (priority 2005, dated 2012).
